Results as given in publication PMC6934184, “Selective DNA-PKcs inhibition extends the therapeutic index of localized radiotherapy and chemotherapy” (The Journal of Clinical Investigation, 2019).

Molecular target: T1, EGFR (ErbB1) T790M L858R (Homo sapiens, UniProt P00533, L858R/T790M)
T1 construct: purchased Thermo Fisher Scientific (Life Technologies) SelectScreen
Assay: SelectScreen Z'LYTE
Assay type: biochemical
Summary of the method: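 NU5455 was profiled across the SelectScreen Broad panel of kinase activity and binding assays. Z'LYTE reactions such as CSF1R ran at apparent Km ATP, while the Adapta CAMK1 assay used ATP listed as 10. Values are given as percent.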

T1 sequence (P00533 25-1210 T790M/L858R): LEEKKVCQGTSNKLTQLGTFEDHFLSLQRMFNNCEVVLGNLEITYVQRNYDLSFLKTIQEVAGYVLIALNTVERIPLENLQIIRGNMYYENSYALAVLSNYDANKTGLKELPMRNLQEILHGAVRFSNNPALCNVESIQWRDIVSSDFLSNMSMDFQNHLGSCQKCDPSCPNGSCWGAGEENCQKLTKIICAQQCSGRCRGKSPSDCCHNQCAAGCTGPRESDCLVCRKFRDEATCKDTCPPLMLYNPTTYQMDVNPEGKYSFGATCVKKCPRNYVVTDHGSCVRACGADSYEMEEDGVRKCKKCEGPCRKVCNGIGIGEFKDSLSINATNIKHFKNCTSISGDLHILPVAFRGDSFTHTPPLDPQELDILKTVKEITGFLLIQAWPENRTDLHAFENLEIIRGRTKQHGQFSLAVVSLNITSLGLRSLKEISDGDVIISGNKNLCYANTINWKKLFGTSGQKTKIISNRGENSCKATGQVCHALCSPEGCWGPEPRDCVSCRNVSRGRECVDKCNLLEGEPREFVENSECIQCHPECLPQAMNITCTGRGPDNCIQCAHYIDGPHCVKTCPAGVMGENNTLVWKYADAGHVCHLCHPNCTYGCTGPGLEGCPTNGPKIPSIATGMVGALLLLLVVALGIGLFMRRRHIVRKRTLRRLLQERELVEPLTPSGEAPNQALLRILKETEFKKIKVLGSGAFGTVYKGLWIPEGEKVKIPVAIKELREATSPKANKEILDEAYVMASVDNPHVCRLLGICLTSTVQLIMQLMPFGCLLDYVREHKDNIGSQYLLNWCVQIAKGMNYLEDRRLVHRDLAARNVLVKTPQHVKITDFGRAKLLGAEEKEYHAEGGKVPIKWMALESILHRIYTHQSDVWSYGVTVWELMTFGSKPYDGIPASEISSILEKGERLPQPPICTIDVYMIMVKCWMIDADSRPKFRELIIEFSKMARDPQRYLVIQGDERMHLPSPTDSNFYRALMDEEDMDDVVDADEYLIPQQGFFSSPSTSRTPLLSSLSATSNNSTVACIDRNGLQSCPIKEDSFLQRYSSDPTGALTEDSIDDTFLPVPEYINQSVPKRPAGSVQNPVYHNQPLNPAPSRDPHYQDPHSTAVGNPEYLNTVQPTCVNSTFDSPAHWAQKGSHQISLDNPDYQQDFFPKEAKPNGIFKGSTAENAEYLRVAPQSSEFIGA

## CN(C(=O)CN1CCOCC1)c1ccc2sc3c(-c4cccc5c(=O)cc(N6CC7CCC(C6)O7)oc45)cccc3c2c1 [NU5455]
  inhibition at 1 µM: -14.1%
